Experimental data from US7074743B1, “Herbicidal composition comprising 4-iodo-2-[3-(4-methoxy-6-methyl-1,3,5-triazin-2-yl)ureidosulfonyl]benzoic esters” (priority 1995, dated 2006).

Assays:
Format in all cases: in vivo
[1] = tested on: Phalaris canariensis; assay: Herbicidal action on PHACA, visual scoring vs untreated, post-emergence 2-4 leaf stage (greenhouse / field trials)
Experimental: (§1) The examples given below were performed in the greenhouse and, in some cases, in field trials.
(§2) The herbicides, or combinations, were applied in cereals after the weeds had emerged naturally using plot sprayers. After application, the results, such as damage to the crop plants and effect on broad-leaved weeds/grass weeds were assessed by means of visual scoring. The herbicidal action was assessed qualitatively and quantitatively by comparing untreated and treated plots on the basis of the effect on plant growth and the development of chloroses and necroses down to the complete destruction of the weeds (0–100%). The application was effected when the crop plants and weeds were in the 2–4 leaf stage. The test was evaluated approximately 4 weeks after application.
(§3) In the greenhouse experiments, the crop plants and broadleaved weeds/grass weeds were grown in No. 13 pots and treated in the 2–4 leaf stage. The pots were subsequently placed in the greenhouse under good growth conditions (temperature, atmospheric humidity, water supply).
(§4) The assessments were carried out similarly to those in the field trials, i.e. visual scoring of the treated plants in comparison with untreated control variants. These assessments were carried out 3 weeks after applying the test preparations and their combinations. The experiments had been set up in two replications.
(§5) To assess the combination effects, the activities of the individual components were added and compared with the activity of the mixtures in equal doses. It was frequently observed that the efficacies of the combinations exceeded the total of the individual activities.
(§6) In cases with less clear effects, the expected value was calculated using Colby's formula and compared with the empirically determined result. The calculated efficacy of a combination which is expected in theory is determined is using S.R. Colby's formula: “Calculation of synergistic and antagonistic responses of herbicide combinations”, Weeds 15 (1967), pages 20 to 22.
(§7) [formula] where • X=% damage caused by herbicide A at a rate of ×kg a.i./ha; • Y=% damage caused by herbicide B at a rate of y kg a.i./ha; • Z=% damage caused by a further herbicide C at a rate of z kg a.i./ha; • E=expected value, i.e. expected damage caused by herbicides A+B (or A+B+C) at x+y (or x+y+z) kg a.i./ha.
(§8) Synergistic effects were assumed to be when the empirical value exceeded the expected value. In the case of combinations with individual components with the same active substances, comparisons via the total formula were also possible.

[2] = tested on: Apera spica venti; assay: Herbicidal action on APESV, visual scoring vs untreated, post-emergence 2-4 leaf stage; details: Table 1
Experimental: as §1, §2, §3, §4, §5, §6, §7, §8

[3] = tested on: Triticum aestivum; assay: Damage to crop plant TRZAW, visual scoring vs untreated
Experimental: as §1, §2, §3, §4

[4] = tested on: Gallium aparine; assay: Herbicidal action on GALAP, visual scoring vs untreated, post-emergence 2-4 leaf stage; details: Table 11
Experimental: as §1, §2, §3, §4, §5, §6, §7, §8

[5] = tested on: Avena fatua; assay: Herbicidal action on AVEFA, visual scoring vs untreated, post-emergence 2-4 leaf stage; details: Table 11
Experimental: as §1, §2, §3, §4, §5, §6, §7, §8

[6] = tested on: Mercurialis annua; assay: Herbicidal action on MERAN, visual scoring vs untreated, post-emergence 2-4 leaf stage; details: Table 11
Experimental: as §1, §2, §3, §4, §5, §6, §7, §8

[7] = tested on: Lolium multiflorum; assay: Herbicidal action on LOLMU, visual scoring vs untreated, post-emergence 2-4 leaf stage
Experimental: as §1, §2, §3, §4, §5, §6, §7, §8

[8] = tested on: Echinochloa crus galli; assay: Herbicidal action on ECHCR, visual scoring vs untreated, post-emergence 2-4 leaf stage; details: Table 4
Experimental: as §1, §2, §3, §4, §5, §6, §7, §8

[9] = tested on: Zea mays; assay: Damage to crop plant ZEAMA, visual scoring vs untreated; details: Table 4
Experimental: as §1, §2, §3, §4

[10] = tested on: Fallopia convolvulus; assay: Herbicidal action on FALCO, visual scoring vs untreated, post-emergence 2-4 leaf stage; details: Table 5
Experimental: as §1, §2, §3, §4, §5, §6, §7, §8

[11] = tested on: Centaurea cyanus; assay: Herbicidal action on CENCY, visual scoring vs untreated, post-emergence 2-4 leaf stage; details: Table 6
Experimental: as §1, §2, §3, §4, §5, §6, §7, §8

[12] = tested on: Secale cereale; assay: Damage to crop plant SECCW, visual scoring vs untreated; details: Table 6
Experimental: as §1, §2, §3, §4

COC(=O)C(C)Oc1ccc(Oc2ccc(Cl)cc2Cl)cc1 (racemic) [B3), diclofop-methyl]
PHACA % control ([1]; Table 1, 225 g of a.i./ha): 0%
PHACA % control ([1]; Table 1, 450 g of a.i./ha): 0%
PHACA % control ([1]; Table 1, 900 g of a.i./ha): 0%
APESV % control ([2]; 225 g of a.i./ha): 0%
APESV % control ([2]; 450 g of a.i./ha): 0%
APESV % control ([2]; 900 g of a.i./ha): 8%
TRZAW % damage ([3]; Table 1, 225 g of a.i./ha): 0%
TRZAW % damage ([3]; Table 1, 450 g of a.i./ha): 0%
TRZAW % damage ([3]; Table 1, 900 g of a.i./ha): 0%

CP(=O)(O)CC[C@@H](N)C(=O)O (racemic) [B49), 4-[hydroxy(methyl)phosphinoyl]-DL-homoalanine]
GALAP % control ([4]; 150 g of a.i./ha): 55%
GALAP % control ([4]; 300 g of a.i./ha): 73%
GALAP % control ([4]; 450 g of a.i./ha): 85%
AVEFA % control ([5]; 150 g of a.i./ha): 60%
AVEFA % control ([5]; 300 g of a.i./ha): 70%
AVEFA % control ([5]; 450 g of a.i./ha): 80%
MERAN % control ([6]; 150 g of a.i./ha): 65%
MERAN % control ([6]; 300 g of a.i./ha): 78%
MERAN % control ([6]; 450 g of a.i./ha): 90%

CC(C)c1ccc(NC(=O)N(C)C)cc1 [B2), 3-(4-isopropylphenyl)-1,1-dimethylurea]
PHACA % control ([1]; Table 3, 375 g of a.i./ha): 0%
PHACA % control ([1]; Table 3, 750 g of a.i./ha): 0%
PHACA % control ([1]; Table 3, 1500 g of a.i./ha): 50%
TRZAW % damage ([3]; in vivo): 0%
LOLMU % control ([7]; Table 3, 375 g of a.i./ha): 0%
LOLMU % control ([7]; Table 3, 750 g of a.i./ha): 0%
LOLMU % control ([7]; Table 3, 1500 g of a.i./ha): 0%

COc1cc(OC)nc(NC(=O)NS(=O)(=O)c2ncccc2C(=O)N(C)C)n1 [B13), 1-(4,6-dimethoxypyrimidin-2-yl)-3-(3-dimethylcarbamoyl-2-pyridylsulfonyl)urea]
ECHCR % control ([8]; 15 g of a.i./ha): 0%
ECHCR % control ([8]; 30 g of a.i./ha): 73%
ECHCR % control ([8]; 60 g of a.i./ha): 75%
ZEAMA % damage ([9]; 15 g of a.i./ha): 0%
ZEAMA % damage ([9]; 30 g of a.i./ha): 0%
ZEAMA % damage ([9]; 60 g of a.i./ha): 2%

CCS(=O)(=O)c1cccnc1S(=O)(=O)NC(=O)Nc1nc(OC)cc(OC)n1 [B14), 1-(4,6-dimethoxypyrimidin-2-yl)-3-(3-ethylsulfonyl-2-pyridylsulfonyl) urea]
ECHCR % control ([8]; 5 g of a.i./ha): 15%
ECHCR % control ([8]; 10 g of a.i./ha): 60%
ECHCR % control ([8]; 20 g of a.i./ha): 85%

Cc1cc(Cl)ccc1O[C@H](C)C(=O)O [B16), (R)-2-(4-chloro-o-tolyloxy)propionic acid]
TRZAW % damage ([3]; Table 5, 125 g of a.i./ha): 0%
TRZAW % damage ([3]; Table 5, 250 g of a.i./ha): 0%
TRZAW % damage ([3]; Table 5, 500 g of a.i./ha): 0%
TRZAW % damage ([3]; Table 5, 1000 g of a.i./ha): 0%
FALCO % control ([10]; 125 g of a.i./ha): 0%
FALCO % control ([10]; 250 g of a.i./ha): 15%
FALCO % control ([10]; 500 g of a.i./ha): 55%
FALCO % control ([10]; 1000 g of a.i./ha): 68%
CENCY % control ([11]; 600 g of a.i./ha): 30%
CENCY % control ([11]; 2500 g of a.i./ha): 70%
SECCW % damage ([12]; 600 g of a.i./ha): 0%
SECCW % damage ([12]; 2500 g of a.i./ha): 0%

Cc1cc(Cl)ccc1OCC(=O)O [B17), (4-chloro-2-methylphenoxy) acetic acid]
TRZAW % damage ([3]; Table 5, 250 g of a.i./ha): 0%
FALCO % control ([10]; 250 g of a.i./ha): 0%
FALCO % control ([10]; 500 g of a.i./ha): 68%
FALCO % control ([10]; 1000 g of a.i./ha): 75%

COc1c(Cl)ccc(Cl)c1C(=O)O [B20), 3,6-dichloro-o-anisic acid]
LOLMU % control ([7]; Table 5, 50 g of a.i./ha): 5%
LOLMU % control ([7]; Table 5, 100 g of a.i./ha): 10%
LOLMU % control ([7]; Table 5, 200 g of a.i./ha): 18%
LOLMU % control ([7]; Table 5, 400 g of a.i./ha): 40%

Nc1c(Cl)c(F)nc(OCC(=O)O)c1Cl [B21), 4-amino-3,5-dichloro-6-fluoro-2-pyridyloxyacetic acid]
FALCO % control ([10]; 50 g of a.i./ha): 73%
FALCO % control ([10]; 100 g of a.i./ha): 80%
FALCO % control ([10]; 200 g of a.i./ha): 95%
